Assays:
Experiment in all cases: relative viability (nuclei count vs DMSO), 5 days (fraction); higher = more cells survive
LC-2-ad = tested on: LC-2-ad
How it was run: (§1)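 Relative viability divides the nuclei count in treated wells by that in vehicle wells. Lung cancer cell lines were seeded in 1536-well plates, dosed by pin tool the next day, and fixed and stained after 5 days in one step with final 0.05% Triton X-100, 1% formaldehyde and 1 ug/ml Hoechst. Dosing was a single drug or a fixed anchor-drug dose plus five library-drug doses (not always all listed) in √10 steps, and values are medians of duplicate plates imaged at 4×.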

NCI-H838 = tested on: NCI-H838
How it was run: as §1

LK-2 = tested on: LK-2
How it was run: as §1

SK-LU-1 = tested on: SK-LU-1
How it was run: as §1

NCI-H2009 = tested on: NCI-H2009
How it was run: as §1

ChaGo-K-1 = tested on: ChaGo-K-1
How it was run: as §1

NCI-H2405 = tested on: NCI-H2405
How it was run: as §1

HARA = tested on: HARA
How it was run: as §1

EMC-BAC-2 = tested on: EMC-BAC-2
How it was run: as §1

NCI-H2023 = tested on: NCI-H2023
How it was run: as §1

A-427 = tested on: A-427
How it was run: as §1

ABC-1 = tested on: ABC-1
How it was run: as §1

HCC-78 = tested on: HCC-78
How it was run: as §1

NCI-H1734 = tested on: NCI-H1734
How it was run: as §1

HCC-15 = tested on: HCC-15
How it was run: as §1

NCI-H1650 = tested on: NCI-H1650
How it was run: as §1

NCI-H1993 = tested on: NCI-H1993
How it was run: as §1

COR-L23 = tested on: COR-L23
How it was run: as §1

NCI-H1944 = tested on: NCI-H1944
How it was run: as §1

NCI-H23 = tested on: NCI-H23
How it was run: as §1

UMC-11 = tested on: UMC-11
How it was run: as §1

HCC-366 = tested on: HCC-366
How it was run: as §1

NCI-H1793 = tested on: NCI-H1793
How it was run: as §1

NCI-H2228 = tested on: NCI-H2228
How it was run: as §1

In the case of `C[C@@H]1CN(CC(=O)Nc2ccc3c(c2)Cc2cccc(-c4cc(=O)cc(N5CCOCC5)o4)c2S3)C[C@H](C)O1` + Cc1cc(Nc2cc(N3CCN(C)CC3)nc(Sc3ccc(NC(=O)C4CC4)cc3)n2)n[nH]1 [Tozasertib] (partner 0.1 µM), the relative viability (LC-2-ad; first compound 0.04 µM) was 0.373, the relative viability (LC-2-ad; first compound 0.1265 µM) was 0.454 and the relative viability (LC-2-ad; first compound 0.4 µM) was 0.467. The relative viability (LC-2-ad; first compound 4 µM) was 0.44, the relative viability (NCI-H838; first compound 0.04 µM) was 0.255 and the relative viability (NCI-H838; first compound 0.1265 µM) was 0.279. It also gave a relative viability (NCI-H838; first compound 0.4 µM) of 0.28, a relative viability (NCI-H838; first compound 4 µM) of 0.202 and a relative viability (LK-2; first compound 0.1265 µM) of 0.174. For the same compound, the relative viability (LK-2; first compound 0.4 µM) was 0.185, the relative viability (LK-2; first compound 4 µM) was 0.17 and the relative viability (SK-LU-1; first compound 0.04 µM) was 0.334. For the same compound, the relative viability (SK-LU-1; first compound 0.1265 µM) was 0.326, the relative viability (SK-LU-1; first compound 0.4 µM) was 0.323 and the relative viability (SK-LU-1; first compound 4 µM) was 0.217. It also gave a relative viability (NCI-H2009; first compound 0.04 µM) of 0.856, a relative viability (NCI-H2009; first compound 0.1265 µM) of 0.682 and a relative viability (NCI-H2009; first compound 0.4 µM) of 0.593. It also gave a relative viability (NCI-H2009; first compound 4 µM) of 0.503, a relative viability (ChaGo-K-1; first compound 0.04 µM) of 0.264 and a relative viability (ChaGo-K-1; first compound 0.1265 µM) of 0.209. The relative viability (ChaGo-K-1; first compound 0.4 µM) was 0.226, the relative viability (ChaGo-K-1; first compound 4 µM) was 0.173 and the relative viability (NCI-H2405; first compound 0.04 µM) was 0.676. For the same compound, the relative viability (NCI-H2405; first compound 0.1265 µM) was 0.766, the relative viability (NCI-H2405; first compound 0.4 µM) was 0.703 and the relative viability (NCI-H2405; first compound 4 µM) was 0.695. It also gave a relative viability (HARA; first compound 0.1265 µM) of 0.105, a relative viability (HARA; first compound 0.4 µM) of 0.0954 and a relative viability (HARA; first compound 4 µM) of 0.104. The relative viability (EMC-BAC-2; first compound 0.04 µM) was 0.257, the relative viability (EMC-BAC-2; first compound 0.1265 µM) was 0.29 and the relative viability (EMC-BAC-2; first compound 0.4 µM) was 0.294. The relative viability (EMC-BAC-2; first compound 4 µM) was 0.264, the relative viability (NCI-H2023; first compound 0.04 µM) was 0.406 and the relative viability (NCI-H2023; first compound 0.1265 µM) was 0.285. The relative viability (NCI-H2023; first compound 0.4 µM) was 0.238, the relative viability (NCI-H2023; first compound 4 µM) was 0.175 and the relative viability (A-427; first compound 0.04 µM) was 0.176. The relative viability (A-427; first compound 0.1265 µM) was 0.214, the relative viability (A-427; first compound 0.4 µM) was 0.214 and the relative viability (A-427; first compound 4 µM) was 0.205. It also gave a relative viability (ABC-1; first compound 0.1265 µM) of 0.159, a relative viability (ABC-1; first compound 0.4 µM) of 0.184 and a relative viability (ABC-1; first compound 4 µM) of 0.16. For the same compound, the relative viability (HCC-78; first compound 0.04 µM) was 0.397, the relative viability (HCC-78; first compound 0.1265 µM) was 0.386 and the relative viability (HCC-78; first compound 0.4 µM) was 0.361. It also gave a relative viability (HCC-78; first compound 4 µM) of 0.318, a relative viability (NCI-H1734; first compound 0.04 µM) of 0.286 and a relative viability (NCI-H1734; first compound 0.1265 µM) of 0.238. For the same compound, the relative viability (NCI-H1734; first compound 0.4 µM) was 0.261, the relative viability (NCI-H1734; first compound 4 µM) was 0.205 and the relative viability (HCC-15; first compound 0.04 µM) was 0.334. For the same compound, the relative viability (HCC-15; first compound 0.1265 µM) was 0.372, the relative viability (HCC-15; first compound 0.4 µM) was 0.385 and the relative viability (HCC-15; first compound 4 µM) was 0.151. For the same compound, the relative viability (NCI-H1650; first compound 0.04 µM) was 0.433, the relative viability (NCI-H1650; first compound 0.1265 µM) was 0.375 and the relative viability (NCI-H1650; first compound 0.4 µM) was 0.344. For the same compound, the relative viability (NCI-H1650; first compound 4 µM) was 0.239, the relative viability (NCI-H1993; first compound 0.04 µM) was 0.567 and the relative viability (NCI-H1993; first compound 0.1265 µM) was 0.592. The relative viability (NCI-H1993; first compound 0.4 µM) was 0.52, the relative viability (NCI-H1993; first compound 4 µM) was 0.569 and the relative viability (COR-L23; first compound 0.04 µM) was 0.199. The relative viability (COR-L23; first compound 0.1265 µM) was 0.218, the relative viability (COR-L23; first compound 0.4 µM) was 0.159 and the relative viability (COR-L23; first compound 4 µM) was 0.137. The relative viability (NCI-H1944; first compound 0.04 µM) was 0.273, the relative viability (NCI-H1944; first compound 0.1265 µM) was 0.255 and the relative viability (NCI-H1944; first compound 0.4 µM) was 0.263. It also gave a relative viability (NCI-H1944; first compound 4 µM) of 0.23, a relative viability (NCI-H23; first compound 0.04 µM) of 0.362 and a relative viability (NCI-H23; first compound 0.1265 µM) of 0.308. For the same compound, the relative viability (NCI-H23; first compound 0.4 µM) was 0.348, the relative viability (NCI-H23; first compound 4 µM) was 0.198 and the relative viability (UMC-11; first compound 0.04 µM) was 0.208. The relative viability (UMC-11; first compound 0.1265 µM) was 0.198, the relative viability (UMC-11; first compound 0.4 µM) was 0.19 and the relative viability (UMC-11; first compound 4 µM) was 0.199. It also gave a relative viability (HCC-366; first compound 0.04 µM) of 0.165, a relative viability (HCC-366; first compound 0.1265 µM) of 0.132 and a relative viability (HCC-366; first compound 0.4 µM) of 0.0609. It also gave a relative viability (HCC-366; first compound 4 µM) of 0.0509, a relative viability (NCI-H1793; first compound 0.04 µM) of 0.279 and a relative viability (NCI-H1793; first compound 0.1265 µM) of 0.313. It also gave a relative viability (NCI-H1793; first compound 0.4 µM) of 0.306, a relative viability (NCI-H1793; first compound 4 µM) of 0.17 and a relative viability (NCI-H2228; first compound 0.04 µM) of 0.235. For the same compound, the relative viability (NCI-H2228; first compound 0.1265 µM) was 0.214, the relative viability (NCI-H2228; first compound 0.4 µM) was 0.245 and the relative viability (NCI-H2228; first compound 4 µM) was 0.162.

From the supplement of paper PMC10307832
